Data as given in patent US11292801B2, “Calpain modulators and therapeutic uses thereof” (Blade Therapeutics, Inc., priority 2016, dated 2022).

Columns and labels:
Human Calpain 1/NS1 = target: T1, Human Calpain 1/NS1 (Homo sapiens, UniProt P07384); assay: Biochemical inhibition of calpain 1, continuous fluorescence (FRET substrate) assay; details: mean, read-out: Human Calpain 1/NS1 IC50 (nM)_MEAN
T1 sequence (P07384 1-714): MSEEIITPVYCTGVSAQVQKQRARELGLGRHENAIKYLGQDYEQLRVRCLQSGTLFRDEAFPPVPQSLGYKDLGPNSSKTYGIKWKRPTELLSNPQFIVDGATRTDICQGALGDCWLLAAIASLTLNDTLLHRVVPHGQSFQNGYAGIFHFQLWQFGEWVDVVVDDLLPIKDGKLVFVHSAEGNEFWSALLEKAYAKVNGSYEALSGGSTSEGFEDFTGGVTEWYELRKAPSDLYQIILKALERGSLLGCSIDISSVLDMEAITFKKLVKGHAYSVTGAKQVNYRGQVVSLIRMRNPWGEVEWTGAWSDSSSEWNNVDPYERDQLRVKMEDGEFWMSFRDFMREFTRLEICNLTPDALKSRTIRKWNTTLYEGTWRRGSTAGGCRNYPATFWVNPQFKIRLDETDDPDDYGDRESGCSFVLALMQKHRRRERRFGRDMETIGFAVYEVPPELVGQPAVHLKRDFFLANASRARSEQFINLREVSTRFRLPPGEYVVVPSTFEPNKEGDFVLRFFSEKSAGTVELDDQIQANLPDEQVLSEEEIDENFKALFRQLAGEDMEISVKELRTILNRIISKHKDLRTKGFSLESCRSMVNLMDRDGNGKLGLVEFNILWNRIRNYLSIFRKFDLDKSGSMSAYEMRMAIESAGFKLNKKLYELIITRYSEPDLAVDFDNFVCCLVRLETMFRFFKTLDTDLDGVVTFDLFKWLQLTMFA
T1 sequence (P04632 1-268 partner): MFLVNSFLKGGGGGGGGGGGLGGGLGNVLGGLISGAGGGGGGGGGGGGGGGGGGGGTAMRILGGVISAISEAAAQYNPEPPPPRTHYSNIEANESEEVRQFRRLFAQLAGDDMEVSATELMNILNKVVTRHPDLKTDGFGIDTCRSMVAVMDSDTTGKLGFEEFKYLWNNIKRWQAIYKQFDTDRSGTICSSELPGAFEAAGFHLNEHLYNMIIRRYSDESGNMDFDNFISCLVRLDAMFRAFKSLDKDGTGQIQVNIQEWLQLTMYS
Summary of the method: (§1)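 IC50 values come from 4-parameter fits of progress-curve rates (1-5 min slopes) against log inhibitor concentration. Calpain and inhibitor premixed at ambient 25C in Tris pH ~7.5/NaCl/DTT buffer, then CaCl2 and FRET substrate added to activate; 5-FAM fluorescence (ex 490/em 520) followed 10 min.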

Human Calpain 2/NS1 = target: T2, Human Calpain 2/NS1 (Homo sapiens, UniProt P17655); assay: Biochemical inhibition of calpain 2, continuous fluorescence (FRET substrate) assay; details: mean, read-out: Human Calpain 2/NS1 IC50 (nM)_MEAN
T2 sequence (P17655 1-700): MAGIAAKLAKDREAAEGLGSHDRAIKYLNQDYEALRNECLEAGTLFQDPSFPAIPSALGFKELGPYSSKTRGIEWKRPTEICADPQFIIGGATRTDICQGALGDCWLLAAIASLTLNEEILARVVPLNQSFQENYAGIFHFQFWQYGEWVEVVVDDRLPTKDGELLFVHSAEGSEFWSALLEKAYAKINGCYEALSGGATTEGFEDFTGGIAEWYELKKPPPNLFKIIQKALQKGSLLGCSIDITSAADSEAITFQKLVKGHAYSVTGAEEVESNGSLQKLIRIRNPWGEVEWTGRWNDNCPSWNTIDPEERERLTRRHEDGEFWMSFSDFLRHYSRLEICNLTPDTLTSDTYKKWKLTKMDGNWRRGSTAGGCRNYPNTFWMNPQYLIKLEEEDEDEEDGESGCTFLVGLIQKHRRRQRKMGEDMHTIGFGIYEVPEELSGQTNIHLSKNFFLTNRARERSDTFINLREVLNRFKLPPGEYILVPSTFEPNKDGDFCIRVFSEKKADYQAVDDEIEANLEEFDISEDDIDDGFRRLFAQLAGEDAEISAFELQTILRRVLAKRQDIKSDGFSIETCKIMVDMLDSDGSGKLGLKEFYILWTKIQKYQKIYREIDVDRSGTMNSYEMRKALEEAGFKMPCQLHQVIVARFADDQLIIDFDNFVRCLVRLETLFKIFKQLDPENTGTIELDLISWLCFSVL
T2 sequence (P04632 1-268 partner): T1 sequence (P04632 1-268 partner)
Summary of the method: as §1

Human Calpain 9/NS1 = target: T3, Human Calpain 9/NS1 (Homo sapiens, UniProt O14815); assay: Biochemical inhibition of calpain 9, continuous fluorescence (FRET substrate) assay; details: mean, read-out: Human Calpain 9/NS1 IC50 (nM)_MEAN
T3 sequence (O14815 1-690): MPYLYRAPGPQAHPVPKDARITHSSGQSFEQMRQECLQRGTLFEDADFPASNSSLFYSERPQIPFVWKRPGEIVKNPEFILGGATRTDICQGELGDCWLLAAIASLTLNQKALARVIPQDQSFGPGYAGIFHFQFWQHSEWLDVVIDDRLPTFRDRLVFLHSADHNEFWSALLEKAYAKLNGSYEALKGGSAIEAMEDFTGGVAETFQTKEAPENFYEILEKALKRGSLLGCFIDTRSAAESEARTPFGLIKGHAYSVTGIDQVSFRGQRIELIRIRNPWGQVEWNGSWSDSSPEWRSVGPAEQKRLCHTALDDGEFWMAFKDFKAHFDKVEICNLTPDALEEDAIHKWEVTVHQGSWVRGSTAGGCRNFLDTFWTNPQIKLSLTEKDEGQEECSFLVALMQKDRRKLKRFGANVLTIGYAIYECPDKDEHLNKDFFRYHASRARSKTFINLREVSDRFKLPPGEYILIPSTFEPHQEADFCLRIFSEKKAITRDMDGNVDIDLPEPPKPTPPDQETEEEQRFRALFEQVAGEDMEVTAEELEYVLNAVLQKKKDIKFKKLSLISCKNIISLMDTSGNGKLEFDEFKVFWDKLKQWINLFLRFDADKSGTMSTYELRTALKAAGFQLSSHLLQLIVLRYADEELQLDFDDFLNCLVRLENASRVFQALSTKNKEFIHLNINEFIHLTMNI
T3 sequence (P04632 1-268 partner): T1 sequence (P04632 1-268 partner)
Summary of the method: as §1

| IC50 (Human Calpain 1/NS1) [nM] | IC50 (Human Calpain 2/NS1) [nM] | IC50 (Human Calpain 9/NS1) [nM] | Structure (SMILES) |
| --- | --- | --- | --- |
| > 10000 | > 10000 | > 10000 | O=C(NCCN1CCOCC1)C(=O)C1CCCCOCCOCc2ccccc2C(=O)N1 (stereo not drawn) [Compound 80, N-(2-morpholinoethyl)-2-oxo-2-(12-oxo-1,3,4,6,7,8,9,10,11,12-decahydrobenzo[f][1,4]dioxa[9]azacyclotetradecin-10-yl)acetamide] |
| 3000 to 10000 | < 3000 | < 3000 | O=C[C@@H]1CCCCCCCCc2ccccc2C(=O)N1 [Compound 15, (S)-1-Oxo-2,3,4,5,6,7,8,9,10,11-decahydro-1h-benzo[c][1]aza-cyclotridecine-3-carbaldehyde] |
| < 3000 | < 3000 | < 3000 | O=C[C@@H]1Cc2ccc(cc2)CCCCc2cccc(c2)-c2ccn(n2)-c2ncccc2C(=O)N1 [Compound 73, (10S,E)-12-oxo-2^1H-11-aza-1(2,3)-pyridina-2(1,3)-pyrazola-3(1,3),8(1,4)-dibenzenacyclododecaphane-10-carbaldehyde] |
| < 3000 | < 3000 | < 3000 | NC(=O)C(=O)[C@@H]1CCCCCOc2ccc(F)c(c2)-c2ccccc2C(=O)N1 [Compound 148, (S)-2-(2^6-fluoro-11-oxo-3-oxa-10-aza-1(1,2),2(1,3)-dibenzena-cycloundecaphane-9-yl)-2-oxoacetamide] |
| > 10000 | > 10000 | > 10000 | CON(C)C(=O)[C@@H]1C/C=C/CCOc2ccnc(n2)-c2ccccc2C(=O)N1 [Compound 135, (S,E)-N-methoxy-N-methyl-3-oxo-11-oxa-4-aza-1(2,4)-pyrimidina-2(1,2)-benzenacycloundecaphan-7-ene-5-carboxamide] |
| < 3000 | < 3000 | < 3000 | NC(=O)C(=O)[C@@H]1C/C=C\CCOc2ccnc(n2)-c2ccccc2C(=O)N1 [Compound 138, (S,Z)-2-oxo-2-(3-oxo-11-oxa-4-aza-1(2,4)-pyrimidina-2(1,2)-benzenacycloundecaphan-7-en-5-yl)acetamide] |
| > 10000 | 3000 to 10000 | < 3000 | NS(=O)(=O)c1ccc(CNC(=O)C(=O)C2CCCCOCCOCc3ccccc3C(=O)N2)cc1 (stereo not drawn) [Compound 84, 2-Oxo-2-(12-oxo-1,3,4,6,7,8,9,10,11,12-decahydrobenzo[f][1,4]dioxa[9]aza-cyclotetradecin-10-yl)-N-(4-sulfamoylbenzyl)acetamide] |
| > 10000 | > 10000 | < 3000 | O=C(NCc1ccccn1)C(=O)C1CCCCOCCOCc2ccccc2C(=O)N1 (stereo not drawn) [Compound 94, 2-Oxo-2-(12-oxo-1,3,4,6,7,8,9,10,11,12-decahydrobenzo[f][1,4]dioxa[9]aza-cyclotetradecin-10-yl)-N-(pyridin-2-ylmethyl)acetamide] |
| < 3000 | < 3000 | 3000 to 10000 | O=C[C@@H]1CC=CCOCCCCOCc2ccccc2C(=O)N1 [Compound 12, (S)-14-Oxo-1,3,4,5,6,8,11,12,13,14-decahydrobenzo[h][1,6]dioxa[11]aza-cyclohexadecine-12-carbaldehyde] |
| > 10000 | 3000 to 10000 | < 3000 | O=C(NCc1cccc(F)c1)C(=O)C1CCCCOCCOCc2ccccc2C(=O)N1 (stereo not drawn) [Compound 106, N-(3-fluorobenzyl)-2-oxo-2-(12-oxo-1,3,4,6,7,8,9,10,11,12-decahydrobenzo[f][1,4]dioxa[9]azacyclotetradecin-10-yl)acetamide] |
| > 10000 | > 10000 | > 10000 | C[C@@H](NC(=O)C(=O)C1CCCCOCCOCc2ccccc2C(=O)N1)c1cccnc1 (stereo partly drawn) [Compound 127, 2-Oxo-2-(12-oxo-1,3,4,6,7,8,9,10,11,12-decahydrobenzo[f][1,4]dioxa[9]aza-cyclotetradecin-10-yl)-N—((R)-1-(pyridin-3-yl)ethyl)acetamide] |
| > 10000 | > 10000 | > 10000 | NC(=O)C(O)[C@@H]1CCCCCOc2ccnc(n2)-c2ccccc2C(=O)N1 (stereo partly drawn) [Compound 147] |
| < 3000 | < 3000 | < 3000 | NC(=O)C(=O)[C@@H]1CCCCCOc2ccnc(n2)-c2ccccc2C(=O)N1 [Compound 129, (S)-2-oxo-2-(3-oxo-11-oxa-4-aza-1(2,4)-pyrimidina-2(1,2)-benzena-cycloundecaphane-5-yl)acetamide] |
| > 10000 | > 10000 | > 10000 | CCNC(=O)C(=O)[C@@H]1CCCCCCCCc2ccccc2C(=O)N1 [Compound 25, (S)—N-ethyl-2-oxo-2-(1-oxo-2,3,4,5,6,7,8,9,10,11-decahydro-1h-benzo[c][1]aza-cyclotridecin-3-yl)acetamide] |
| > 10000 | > 10000 | < 3000 | O=C(NCc1cccnc1)C(=O)C1CCCCOCCOCc2ccccc2C(=O)N1 (stereo not drawn) [Compound 103, 2-Oxo-2-(12-oxo-1,3,4,6,7,8,9,10,11,12-decahydrobenzo[f][1,4]dioxa[9]aza-cyclotetradecin-10-yl)-N-(pyridin-3-ylmethyl)acetamide] |
| > 10000 | 3000 to 10000 | < 3000 | CS(=O)(=O)c1ccc(CNC(=O)C(=O)C2CCCCOCCOCc3ccccc3C(=O)N2)cc1 (stereo not drawn) [Compound 121, N-(4-(methylsulfonyl)benzyl)-2-oxo-2-(12-oxo-1,3,4,6,7,8,9,10,11,12-decahydrobenzo[f][1,4]dioxa[9]azacyclotetradecin-10-yl)acetamide] |
| > 10000 | 3000 to 10000 | 3000 to 10000 | COc1ccc(CNC(=O)C(=O)C2CCCCOCCOCc3ccccc3C(=O)N2)c(OC)c1 (stereo not drawn) [Compound 99, N-(2,4-dimethoxybenzyl)-2-oxo-2-(12-oxo-1,3,4,6,7,8,9,10,11,12-decahydrobenzo[f][1,4]dioxa[9]azacyclotetradecin-10-yl)acetamide] |
| 3000 to 10000 | 3000 to 10000 | < 3000 | O=C(NCCc1ccc(Cl)cc1)C(=O)[C@@H]1C/C=C/COCCOCc2ccccc2C(=O)N1 [Compound 78, (S,E)-N-(4-chlorophenethyl)-2-oxo-2-(12-oxo-1,3,4,6,9,10,11,12-octahydrobenzo[f][1,4]dioxa[9]azacyclotetradecin-10-yl)acetamide] |
